A short description of data set [1]: Non-specific binding of compounds to magnetizable beads alone. As to conditions: 30 min incubation of beads (5.3×10^9 beads), bioanalysis of supernatant.
For the next data set, the target named is T1, UGT2B7 (Homo sapiens, UniProt P16662).
T1 sequence (P16662 24-529): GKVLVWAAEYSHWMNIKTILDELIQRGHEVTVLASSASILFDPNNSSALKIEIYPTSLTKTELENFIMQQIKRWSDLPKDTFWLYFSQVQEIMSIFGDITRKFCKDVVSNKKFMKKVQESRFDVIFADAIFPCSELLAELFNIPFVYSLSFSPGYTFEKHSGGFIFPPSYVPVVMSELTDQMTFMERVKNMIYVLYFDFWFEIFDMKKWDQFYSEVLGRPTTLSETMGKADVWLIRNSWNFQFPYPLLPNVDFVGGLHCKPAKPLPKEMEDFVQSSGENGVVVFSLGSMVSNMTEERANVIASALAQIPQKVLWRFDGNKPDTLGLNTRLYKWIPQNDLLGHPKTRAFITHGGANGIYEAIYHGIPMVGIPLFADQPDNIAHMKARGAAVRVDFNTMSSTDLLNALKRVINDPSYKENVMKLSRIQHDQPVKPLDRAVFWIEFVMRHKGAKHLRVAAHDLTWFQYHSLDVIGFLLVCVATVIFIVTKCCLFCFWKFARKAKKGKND
As to the kind of experiment: in vitro. As to conditions: for microsomal CLint: pH 7.8; for Km: pH 7.8, Km, Michaelis-Menten modeling.

A short description of data set [2]: Microsomal binding (fu,mic) using HLM-beads. Conditions: for fu,mic: HLM-beads, compound 1.0 μM, (SD).
Data set [3] is described as follows: Microsomal binding (fu,mic) using rapid equilibrium dialysis (RED). As to conditions: compound 1.0 μM, (SD). A general note: Equilibrium dialysis compares concentrations on both sides of a semipermeable membrane.
The nature of data set [4]: in vitro. As to conditions: human.
Data set [5] is described as follows: in vitro. As to conditions: human. The source holds these as a separate data set.
The target of a further data set is T2, CYP2C8 (Homo sapiens, UniProt P10632).
T2 sequence (P10632 1-490): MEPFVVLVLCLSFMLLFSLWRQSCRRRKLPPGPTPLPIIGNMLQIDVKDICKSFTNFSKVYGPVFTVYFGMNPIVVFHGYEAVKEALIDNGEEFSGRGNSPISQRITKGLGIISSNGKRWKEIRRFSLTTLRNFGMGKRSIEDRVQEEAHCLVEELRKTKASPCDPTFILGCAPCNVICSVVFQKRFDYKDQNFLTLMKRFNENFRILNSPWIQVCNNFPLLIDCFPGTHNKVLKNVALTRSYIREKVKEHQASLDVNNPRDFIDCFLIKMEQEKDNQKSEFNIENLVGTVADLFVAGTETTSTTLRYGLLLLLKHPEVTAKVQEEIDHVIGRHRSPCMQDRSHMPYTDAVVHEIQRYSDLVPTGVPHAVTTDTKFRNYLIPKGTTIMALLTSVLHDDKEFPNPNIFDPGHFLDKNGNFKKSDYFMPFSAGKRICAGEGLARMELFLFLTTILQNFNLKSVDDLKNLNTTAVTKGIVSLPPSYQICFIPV

For data set [6] the following is noted: cited from earlier work.
In data set [7] the target is T3, UGT1A1 (Homo sapiens, UniProt P22309).
T3 sequence (P22309 26-533): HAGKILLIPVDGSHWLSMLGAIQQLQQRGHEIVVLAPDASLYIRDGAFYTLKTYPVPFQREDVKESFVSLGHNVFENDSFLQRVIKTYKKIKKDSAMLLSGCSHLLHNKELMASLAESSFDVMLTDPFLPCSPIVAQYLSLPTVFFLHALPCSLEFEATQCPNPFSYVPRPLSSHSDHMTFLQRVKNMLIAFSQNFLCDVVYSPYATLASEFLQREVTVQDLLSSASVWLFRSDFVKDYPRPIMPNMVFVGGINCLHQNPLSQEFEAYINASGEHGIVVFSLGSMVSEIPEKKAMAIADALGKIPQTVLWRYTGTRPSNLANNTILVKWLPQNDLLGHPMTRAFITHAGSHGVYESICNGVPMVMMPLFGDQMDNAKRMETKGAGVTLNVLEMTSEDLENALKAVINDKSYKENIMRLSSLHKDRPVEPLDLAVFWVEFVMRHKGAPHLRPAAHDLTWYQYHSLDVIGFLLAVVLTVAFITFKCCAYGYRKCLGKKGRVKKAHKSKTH
As to the kind of experiment: UGT1A1-catalyzed E2 3-glucuronidation kinetics in HLM suspensions vs HLM-beads.

Data set [8] deals with T3, UGT1A1. Nature of the data set: in vitro. Conditions: pH 7.8.
Substrate in data set [9]: CC(C)c1cccc(C(C)C)c1O
Substrate in data set [10]: CCN(CC)Cc1cc(Nc2ccnc3cc(Cl)ccc23)ccc1O
As to the kind of experiment: not read. As to conditions: other: HLM suspensions; substrate inhibition modeling; pH 7.4.

Substrate in data set [11]: C[C@]12CC[C@@H]3c4ccc(O)cc4CC[C@H]3[C@@H]1CC[C@@H]2O
Nature of the data set: not read. Conditions: other: HLM suspensions; allosteric sigmoidal modeling; pH 7.8; 37.0 °C.

The mark [12] stands for this setting: human liver microsomes (suspension).
The mark [13] stands for this setting: human liver microsomes bound to magnetic beads (HLM-beads).

Several values for one entry are separate records, joined by “and”; a condition that tells them apart may be missing. Identical values can stand only once. Marks after values point to notes of the source that are not given here.

On to `OCc1ncc2n1-c1ccc(Cl)cc1C(c1ccccc1F)=NC2` [1′OH midazolam, 1′hydroxymidazolam], for which the “non-specific binding to the beads” value in data set [1] is on record as “not observed”.
What is called microsomal CLint is a measure of how fast metabolising enzymes remove a compound, apart from limits set by blood flow. The term Km denotes the substrate concentration at which the rate is half of its maximum. With `Cc1cn([C@H]2C[C@H](N=[N+]=[N-])[C@@H](CO)O2)c(=O)[nH]c1=O` [AZT, zidovudine], the values for the microsomal CLint at UGT2B7 (setting [12]) and at UGT2B7 were 0.44 µL/min/mg and 2.8 µL/min/mg, respectively. For the same molecule, the figures for the Km at UGT2B7 (HLM suspensions) and on UGT2B7 (HLM-beads) were 1400 ± 0.1 µM and 490 ± 0.06 µM, respectively.
One may read the fraction unbound as free concentration divided by total concentration. `Cc1nnc2n1-c1ccc(Cl)cc1C(c1ccccc1)=NC2` [Alprazolam]: the results for the “fu,mic ratio HLM-beads/RED” value in [2] (HLM 0.50 mg/ml), in [2] (HLM 1.0 mg/ml) and in [2] (HLM […]) were 0.77, 0.66 and 0.82, respectively. Further, the “fu,mic” value is 0.78 (0.06) in data set [2] (HLM 0.50 mg/ml), 0.68 (0.07) in data set [2] (HLM 1.0 mg/ml), 1.0 (0.1) in data set [3] (HLM 0.50 mg/ml) and 1.0 (0.1) in data set [3] (HLM 1.0 mg/ml). This molecule also had a fraction unbound at 5 min, 1 μM in the data set “in vitro [4]” (microsomes) of 0.81. The same molecule gave a fraction unbound at 6 h, 1 μM in the data set “in vitro [5]” (microsomes) of 0.98.
Consider `CCN(CC)Cc1cc(Nc2ccnc3cc(Cl)ccc23)ccc1O` [Amodiaquine, amodiaquine], for which the “Km, times higher with HLM-beads than with HLM suspensions” value at CYP2C8 is on record as “approximately 2 ×”.
For the molecule `CN(C)CCCN1c2ccccc2Sc2ccc(Cl)cc21` [Chlorpromazine, chlorpromazine], the “fu,mic” value in data set [2] (HLM 0.50 mg/ml) is listed as 0.11 (0.02); in data set [2] (HLM […]) it was 0.79 (0.13).
For `O=C(O)Cc1ccccc1Nc1c(Cl)cccc1Cl` [Diclofenac, diclofenac], in data set [2] (HLM 0.50 mg/ml), the “fu,mic” value is on record as 0.92 (0.03)^a. Also, the figures for the fraction unbound at 5 min, 1 μM in the data set “in vitro [4]” and in “in vitro [4]” (setting [13]) were 0.94 and 0.87, respectively. In addition, the fraction unbound at 6 h, 1 μM in the data set “in vitro [5]” (microsomes) amounted to 0.98.
The pKa is the pH at which an ionisable group is half protonated. For `COc1ccc([C@@H]2Sc3ccccc3N(CCN(C)C)C(=O)[C@@H]2OC(C)=O)cc1` [Diltiazem, diltiazem], the “fu,mic ratio HLM-beads/RED” value in [2] (HLM 0.50 mg/ml) is 1.5; in [2] (HLM 1.0 mg/ml), 1.3; in data set [2] (HLM […]), 1.0. For the same molecule, the results for the fraction unbound at 5 min, 1 μM in “in vitro [4]” and in “in vitro [4]” (setting [13]) were 0.99 and 0.97, respectively. Besides, the pKa in [6] is on record as 9.4. In “in vitro [5]” (microsomes), this molecule returned a fraction unbound at 6 h, 1 μM of 0.96.
Regarding `C[C@]12CC[C@@H]3c4ccc(O)cc4CC[C@H]3[C@@H]1CC[C@@H]2O` [E2, estradiol], at UGT1A1 [7], the “V/K or CLint, fold higher in HLM-beads than in HLM suspensions” value was “higher” and the “Vmax, HLM-beads compared with HLM suspensions” value is recorded as “comparable”. Moreover, the microsomal CLint at UGT1A1 [8] (setting [12]) amounted to 59 µL/min/mg. Moreover, on UGT1A1 [8], the microsomal CLint worked out at 88 µL/min/mg.
`CN(C)CCCN1c2ccccc2CCc2ccccc21` [Imipramine, imipramine] displayed a fraction unbound at 6 h, 1 μM in the data set “in vitro [5]” (microsomes) of 0.4.
As for `CCC(C)n1ncn(-c2ccc(N3CCN(c4ccc(OCC5COC(Cn6cncn6)(c6ccc(Cl)cc6Cl)O5)cc4)CC3)cc2)c1=O` (centres unmarked) [Itraconazole, itraconazole], the “fu,mic ratio HLM-beads/RED” value came to 2.8 in data set [2] (HLM 0.50 mg/ml), 2.9 in [2] (HLM 1.0 mg/ml) and 0.84 in data set [2] (HLM […]). For the same molecule, the “fu,mic” value in data set [2] (HLM 0.50 mg/ml) is 0.10 (0.01); in [2] (HLM […]) it was 0.24 (0.04); in data set [3] (pre-soak method, HLM 0.50 mg/ml), 0.036 (0.005)^b; in data set [3] (pre-soak method, HLM […]), 0.29 (0.07)^b. In “in vitro [4]” (setting [13]), the fraction unbound at 5 min, 1 μM was 0.073. Also, in “in vitro [5]”, the fraction unbound at 6 h, 1 μM turned out to be 0.025.
On to `CCCCNC(=O)NS(=O)(=O)c1ccc(C)cc1` [Tolbutamide, tolbutamide], for which, in [6], the pKa is listed as 5.2.

B1: UGT1A9 (Homo sapiens) (protein)
chain: GKLLVVPMDGSHWFTMRSVVEKLILRGHEVVVVMPEVSWQLGRSLNCTVKTYSTSYTLEDLDREFKAFAHAQWKAQVRSIYSLLMGSYNDIFDLFFSNCRSLFKDKKLVEYLKESSFDAVFLDPFDNCGLIVAKYFSLPSVVFARGILCHYLEEGAQCPAPLSYVPRILLGFSDAMTFKERVRNHIMHLEEHLLCHRFFKNALEIASEILQTPVTEYDLYSHTSIWLLRTDFVLDYPKPVMPNMIFIGGINCHQGKPLPMEFEAYINASGEHGIVVFSLGSMVSEIPEKKAMAIADALGKIPQTVLWRYTGTRPSNLANNTILVKWLPQNDLLGHPMTRAFITHAGSHGVYESICNGVPMVMMPLFGDQMDNAKRMETKGAGVTLNVLEMTSEDLENALKAVINDKSYKENIMRLSSLHKDRPVEPLDLAVFWVEFVMRHKGAPHLRPAAHDLTWYQYHSLDVIGFLLAVVLTVAFITFKCCAYGYRKCLGKKGRVKKAHKSKTH
As to B1, the K0.5 in data set [9] was 30 ± 4 μM and 13 ± 2^sig μM.

B2: CYP2C8 (Homo sapiens) (protein)
chain: MEPFVVLVLCLSFMLLFSLWRQSCRRRKLPPGPTPLPIIGNMLQIDVKDICKSFTNFSKVYGPVFTVYFGMNPIVVFHGYEAVKEALIDNGEEFSGRGNSPISQRITKGLGIISSNGKRWKEIRRFSLTTLRNFGMGKRSIEDRVQEEAHCLVEELRKTKASPCDPTFILGCAPCNVICSVVFQKRFDYKDQNFLTLMKRFNENFRILNSPWIQVCNNFPLLIDCFPGTHNKVLKNVALTRSYIREKVKEHQASLDVNNPRDFIDCFLIKMEQEKDNQKSEFNIENLVGTVADLFVAGTETTSTTLRYGLLLLLKHPEVTAKVQEEIDHVIGRHRSPCMQDRSHMPYTDAVVHEIQRYSDLVPTGVPHAVTTDTKFRNYLIPKGTTIMALLTSVLHDDKEFPNPNIFDPGHFLDKNGNFKKSDYFMPFSAGKRICAGEGLARMELFLFLTTILQNFNLKSVDDLKNLNTTAVTKGIVSLPPSYQICFIPV
Turning to B2, in the data set “not read [10]”, the Km came to 0.732 ± 0.11 µM and the Vmax/Km came out at 1340 µL/min/mg.

B3: UGT1A1 (Homo sapiens) (protein)
chain: HAGKILLIPVDGSHWLSMLGAIQQLQQRGHEIVVLAPDASLYIRDGAFYTLKTYPVPFQREDVKESFVSLGHNVFENDSFLQRVIKTYKKIKKDSAMLLSGCSHLLHNKELMASLAESSFDVMLTDPFLPCSPIVAQYLSLPTVFFLHALPCSLEFEATQCPNPFSYVPRPLSSHSDHMTFLQRVKNMLIAFSQNFLCDVVYSPYATLASEFLQREVTVQDLLSSASVWLFRSDFVKDYPRPIMPNMVFVGGINCLHQNPLSQEFEAYINASGEHGIVVFSLGSMVSEIPEKKAMAIADALGKIPQTVLWRYTGTRPSNLANNTILVKWLPQNDLLGHPMTRAFITHAGSHGVYESICNGVPMVMMPLFGDQMDNAKRMETKGAGVTLNVLEMTSEDLENALKAVINDKSYKENIMRLSSLHKDRPVEPLDLAVFWVEFVMRHKGAPHLRPAAHDLTWYQYHSLDVIGFLLAVVLTVAFITFKCCAYGYRKCLGKKGRVKKAHKSKTH
Turning to B3, the K0.5 in the data set “not read [11]” is 13 ± 1 µM.

(Values after US20210223237A1, “COMPOSITIONS AND METHODS FOR STUDYING DRUG METABOLISM” (Boehringer Ingelheim International GmbH, priority 2020, published 2021).)
